Test results from the supplement of paper PMC10307832.

Tests used:
Experiment in all cases: relative viability (nuclei count vs DMSO), 5 days (fraction); higher = more cells survive
Erlotinib = compound: C#Cc1cccc(Nc2ncnc3cc(OCCOC)c(OCCOC)cc23)c1 [Erlotinib]
In short: (§1)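 Viability here means nuclei in treated wells divided by nuclei in vehicle wells, reported as the median across plates. Only plates with control CV below 25% and at least one doubling passed. Lung cancer cell lines in 1536-well plates were exposed to five √10-spaced library-drug doses for 5 days and counted from 4× Hoechst images in MetaXpress.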

Phenformin = compound: N=C(N)NC(=N)NCCc1ccccc1 [Phenformin] (anchor plate); details: 250 µM
In short: as §1

AT9283 = compound: O=C(Nc1c[nH]nc1-c1nc2ccc(CN3CCOCC3)cc2[nH]1)NC1CC1 [AT9283]
In short: as §1

AT9283 + Phenformin = compound: O=C(Nc1c[nH]nc1-c1nc2ccc(CN3CCOCC3)cc2[nH]1)NC1CC1 [AT9283] + N=C(N)NC(=N)NCCc1ccccc1 [Phenformin] (partner 250 µM)
In short: (§2)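 Relative viability equals treated-well nuclei counts divided by vehicle-well nuclei counts. Counts came from 4× images of lung cancer cell lines grown in 1536-well plates for 5 days after pin-tool dosing on the day after seeding. Dosing used one drug alone or a fixed anchor-drug dose plus five library-drug doses (not always all listed) in √10 steps, and values are medians of duplicate plates.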

Erlotinib + Linsitinib = compound: C#Cc1cccc(Nc2ncnc3cc(OCCOC)c(OCCOC)cc23)c1 [Erlotinib] + C[C@]1(O)C[C@@H](c2nc(-c3ccc4ccc(-c5ccccc5)nc4c3)c3c(N)nccn32)C1 [Linsitinib] (partner 1 µM)
In short: as §2

Row | Cell Line | relative viability (Erlotinib; 0.02 µM) | relative viability (Erlotinib; 0.2 µM) | relative viability (Erlotinib; 0.6325 µM) | relative viability (Erlotinib; 2 µM) | relative viability (Phenformin) | relative viability (AT9283; 0.003 µM) | relative viability (AT9283; 0.03 µM) | relative viability (AT9283; 0.09487 µM) | relative viability (AT9283; 0.3 µM) | relative viability (AT9283 + Phenformin; first compound 0.003 µM) | relative viability (AT9283 + Phenformin; first compound 0.03 µM) | relative viability (AT9283 + Phenformin; first compound 0.09487 µM) | relative viability (AT9283 + Phenformin; first compound 0.3 µM) | relative viability (Erlotinib + Linsitinib; first compound 0.02 µM) | relative viability (Erlotinib + Linsitinib; first compound 0.2 µM) | relative viability (Erlotinib + Linsitinib; first compound 0.6325 µM) | relative viability (Erlotinib + Linsitinib; first compound 2 µM)
1 | NCI-H358 | 1.01 | 0.631 | 0.547 | 0.308 | 0.359 | 0.863 | 0.2 | 0.192 | 0.158 | 0.309 | 0.1 | 0.0619 | 0.0785 | 0.817 | 0.558 | 0.377 | 0.292
2 | NCI-H460 | 0.994 | 0.959 | 1.05 | 0.96 | 0.529 | 0.985 | 0.931 | 0.542 | 0.21 | 0.517 | 0.508 | 0.0947 | 0.0363 | 0.804 | 0.647 | – | 0.712
3 | NCI-H520 | 1.04 | 0.899 | 1.1 | 1.03 | 0.671 | 0.76 | 0.551 | 0.372 | 0.223 | 0.572 | 0.284 | 0.243 | 0.174 | 0.98 | 0.915 | 1.03 | 0.965
4 | NCI-H596 | 0.992 | 0.861 | 0.933 | 0.91 | 0.733 | 0.935 | 0.955 | 0.909 | 0.539 | 0.743 | 0.82 | 0.608 | 0.564 | 1.03 | 0.939 | 1.02 | 0.789
5 | NCI-H647 | 0.878 | 0.829 | 1.08 | 0.912 | 0.554 | 0.902 | 0.434 | 0.167 | 0.11 | 0.525 | 0.305 | 0.145 | 0.0997 | 1.2 | 1.15 | 1.19 | 0.971
6 | NCI-H650 | 0.827 | 0.974 | 1.06 | 0.806 | 0.464 | 0.835 | 0.883 | 0.633 | 0.204 | 0.366 | 0.436 | 0.223 | 0.165 | 0.817 | – | 1.06 | 0.843
7 | NCI-H661 | 1 | 0.939 | 1.01 | 0.81 | 0.285 | 0.981 | 0.491 | 0.388 | 0.39 | 0.276 | 0.269 | 0.252 | 0.236 | 0.731 | 0.432 | 0.663 | 0.493
8 | NCI-H727 | 0.924 | 0.768 | 0.844 | 0.769 | 0.578 | 0.98 | 0.746 | 0.502 | 0.406 | 0.39 | 0.447 | 0.298 | 0.39 | 0.284 | 0.349 | 0.282 | 0.232
9 | NCI-H838 | 1 | 0.896 | 1.14 | 0.883 | 0.634 | 0.969 | 0.517 | 0.313 | 0.253 | 0.564 | 0.23 | 0.165 | 0.17 | 1.19 | 0.93 | 1.05 | 0.906
10 | NCI-H1355 | 0.978 | 0.878 | 0.956 | 0.755 | 0.456 | 0.956 | 0.971 | 0.68 | 0.197 | 0.478 | 0.449 | 0.362 | 0.238 | 0.921 | 0.815 | 0.723 | 0.559
11 | NCI-H1395 | 0.865 | 0.88 | 1.08 | 0.981 | 0.451 | 0.789 | 0.662 | 0.39 | 0.393 | 0.391 | 0.43 | 0.316 | 0.321 | 1.1 | 1.1 | 1.23 | 1.06
12 | NCI-H1437 | 1.01 | 1.03 | 1.03 | 0.958 | 0.296 | 0.95 | 0.976 | 0.55 | 0.22 | 0.294 | 0.263 | 0.149 | 0.127 | 1.05 | 0.941 | 0.83 | 0.526
13 | NCI-H1563 | 1.03 | 0.898 | – | 0.953 | 0.681 | 0.995 | 0.815 | 0.661 | 0.617 | 0.638 | 0.663 | 0.605 | 0.556 | 1.2 | 1.23 | 1.2 | 1.15
14 | NCI-H1651 | 1.03 | 0.896 | 1.04 | 0.946 | 0.328 | 0.951 | 0.999 | 0.875 | 0.455 | 0.293 | 0.358 | 0.277 | 0.219 | 0.967 | 0.996 | 1.07 | 0.842
15 | NCI-H1666 | 0.973 | 0.928 | 0.855 | 0.728 | 0.571 | 0.975 | 0.847 | 0.66 | 0.535 | 0.587 | 0.516 | 0.404 | 0.35 | 0.82 | 0.696 | 0.62 | 0.496
16 | NCI-H1734 | 1.02 | 0.869 | 0.996 | 0.934 | 0.42 | 0.925 | 0.47 | 0.336 | 0.27 | 0.334 | 0.278 | 0.243 | 0.203 | 0.946 | 0.849 | 0.966 | 0.776

Row | Cell Line | relative viability (Erlotinib; 0.02 µM) | relative viability (Erlotinib; 0.2 µM) | relative viability (Erlotinib; 0.6325 µM) | relative viability (Erlotinib; 2 µM) | relative viability (Phenformin) | relative viability (AT9283; 0.003 µM) | relative viability (AT9283; 0.03 µM) | relative viability (AT9283; 0.09487 µM) | relative viability (AT9283; 0.3 µM) | relative viability (AT9283 + Phenformin; first compound 0.003 µM) | relative viability (AT9283 + Phenformin; first compound 0.03 µM) | relative viability (AT9283 + Phenformin; first compound 0.09487 µM) | relative viability (AT9283 + Phenformin; first compound 0.3 µM) | relative viability (Erlotinib + Linsitinib; first compound 0.02 µM) | relative viability (Erlotinib + Linsitinib; first compound 0.2 µM) | relative viability (Erlotinib + Linsitinib; first compound 0.6325 µM) | relative viability (Erlotinib + Linsitinib; first compound 2 µM)
17 | NCI-H1755 | 1 | 1.02 | 1.06 | 0.935 | 0.626 | 1.02 | 1.01 | 0.617 | 0.639 | 0.579 | 0.626 | 0.394 | 0.422 | 1.05 | – | 0.955 | 0.976
18 | NCI-H1792 | 0.875 | 0.821 | 0.92 | 0.742 | 0.343 | 0.887 | 0.886 | 0.943 | 0.376 | – | 0.255 | 0.333 | 0.148 | 0.466 | 0.405 | 0.525 | 0.432
19 | NCI-H1793 | – | 0.521 | 0.63 | 0.455 | 0.401 | 0.858 | 1.03 | 0.39 | 0.321 | 0.301 | 0.352 | 0.138 | 0.219 | 0.785 | 0.397 | 0.767 | 0.651
20 | NCI-H1915 | 1.07 | 1.01 | – | 0.977 | 0.359 | 0.925 | 0.929 | 0.461 | 0.256 | 0.362 | 0.342 | 0.174 | 0.168 | 1.15 | 1.17 | 1.1 | 1.08
21 | NCI-H1944 | – | 0.72 | 0.916 | 0.594 | 0.206 | 0.903 | 0.629 | 0.367 | 0.268 | 0.201 | 0.171 | 0.122 | 0.136 | 1.17 | – | 0.776 | 0.642
22 | NCI-H1975 | 0.946 | 0.961 | 1.11 | 0.786 | 0.409 | 0.944 | 1.03 | 0.801 | 0.545 | 0.418 | 0.403 | 0.356 | 0.183 | 0.954 | 0.974 | 0.991 | –
23 | NCI-H1993 | 0.965 | 0.748 | 0.714 | – | 0.497 | 0.961 | 0.907 | 0.59 | 0.497 | 0.474 | 0.496 | 0.431 | 0.408 | 0.763 | – | 0.728 | 0.85
24 | NCI-H2009 | 1.07 | 0.998 | 1.08 | 0.996 | 0.485 | 1.03 | 0.859 | 0.423 | 0.26 | 0.525 | 0.384 | 0.309 | 0.145 | 1.26 | 1.15 | 1.2 | 1.22
25 | NCI-H2023 | 0.966 | 0.89 | 0.946 | 0.758 | 0.43 | 1.03 | 0.935 | 0.266 | 0.138 | 0.448 | 0.389 | 0.193 | 0.131 | 0.721 | 0.574 | 0.428 | 0.496
26 | NCI-H2085 | 0.932 | 0.851 | 0.843 | 0.699 | 0.724 | 1 | 0.946 | 0.937 | 0.447 | 0.702 | 0.664 | 0.597 | 0.264 | 0.858 | 0.728 | 0.664 | 0.76
27 | NCI-H2087 | 1.03 | 1.03 | 1.07 | 0.879 | 0.453 | 0.988 | 0.63 | 0.269 | 0.16 | 0.458 | 0.251 | 0.111 | 0.118 | 1.03 | 1.14 | 1.06 | 0.828
28 | NCI-H2126 | 0.961 | 0.82 | 0.773 | 0.636 | 0.535 | 0.963 | 0.991 | 0.829 | 0.407 | 0.511 | 0.575 | 0.365 | 0.264 | – | 0.597 | 0.548 | 0.419
29 | NCI-H2228 | 0.959 | 1 | 1.07 | 0.871 | 0.318 | 1.08 | 0.769 | 0.33 | 0.187 | 0.363 | 0.256 | 0.129 | 0.107 | 0.515 | 0.75 | 0.557 | 0.514
30 | NCI-H2347 | 1.03 | 1.06 | 0.987 | 0.952 | 0.421 | 1.16 | 1 | 0.597 | 0.514 | 0.413 | 0.464 | 0.347 | 0.363 | 1.03 | 1.04 | – | 0.834
31 | NCI-H2405 | 0.986 | 1 | 1.12 | 0.956 | 0.379 | 1 | 0.965 | 0.519 | 0.256 | 0.415 | 0.362 | 0.28 | 0.251 | 1.01 | – | 0.994 | 0.768
32 | NCI-H3122 | 0.987 | – | 1 | 0.977 | 0.386 | 0.982 | 0.963 | 0.619 | 0.236 | 0.359 | 0.334 | 0.203 | 0.138 | 1.04 | 1.06 | 1.02 | 0.961
